Results: ChEMBL document CHEMBL6109147, “Discovery of Potent STING Inhibitors Bearing a Difluorobenzodioxol Structural Motif as Potent Anti-Inflammatory Agents” (J Med Chem, 2025)
The source made the active and inactive calls. The rule behind the calls is not given here.

Columns and labels:
[1] = biological target: Stimulator of interferon genes protein (Homo sapiens) (UniProt Q86WV6); experiment: Inhibition of STING downstream signalling in human THP1-Dual cells assessed as inhibition of HT-DNA induced TNF-alpha mRNA expression at 0.3 to 3 uM pre-treated for 1 hr followed by stimulated with HT-DNA measured after 4 hrs by real-time PCR analysis; format: cell-based; conditions: dose 0.3-3 µM, time 5.0 hrs
Sequence of Stimulator of interferon genes protein (Homo sapiens) (Q86WV6 whole entry): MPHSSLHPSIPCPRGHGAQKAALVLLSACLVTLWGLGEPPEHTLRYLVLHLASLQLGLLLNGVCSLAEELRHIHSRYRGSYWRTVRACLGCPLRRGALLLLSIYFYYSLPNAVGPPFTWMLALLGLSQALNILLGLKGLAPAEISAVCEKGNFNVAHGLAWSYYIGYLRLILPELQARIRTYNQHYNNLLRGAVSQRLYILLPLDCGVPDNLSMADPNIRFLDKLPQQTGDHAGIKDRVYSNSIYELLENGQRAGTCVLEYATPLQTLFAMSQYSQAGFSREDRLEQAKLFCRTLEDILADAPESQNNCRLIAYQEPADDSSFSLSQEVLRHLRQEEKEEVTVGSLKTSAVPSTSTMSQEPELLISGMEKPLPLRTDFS

Mus musculus [2] = experiment: Anti-inflammatory activity against MSA-2 induced C57BL/6 mouse inflammation model assessed as inhibition of MSA-2 induced Isg15 mRNA expression in kidney at 10 mg/kg, ip pre-treated for 1 hr followed by stimulated with MSA-2 for 4 hrs by real-time PCR analysis; format: functional, organism-based; conditions: time 5.0 hrs
[3] = biological target: Stimulator of interferon genes protein (Homo sapiens) (UniProt Q86WV6); experiment: Inhibition of STING downstream signalling in human THP1-Dual cells assessed as inhibition of HT-DNA induced IP-10 mRNA expression at 0.3 to 3 uM pre-treated for 1 hr followed by stimulated with HT-DNA measured after 4 hrs by real-time PCR analysis; format: cell-based; conditions: dose 0.3-3 µM, time 5.0 hrs
[4] = biological target: Stimulator of interferon genes protein (Homo sapiens) (UniProt Q86WV6); experiment: Inhibition of human wild type STING (R232) expressed in human 293-Dual hSTING-R232 cells assessed as reduction in cGAMP-induced IL-6 expression; format: cell-based
[5] = biological target: T1, Stimulator of interferon genes protein (Mus musculus) (UniProt Q3TBT3); experiment: Inhibition of STING downstream signalling in mouse BMDM cells assessed as inhibition of MSA-2 induced TBK1 phosphorylation pre-treated for 1 hr followed by stimulated with MSA-2 measured after 4 hrs by Western blot analysis; format: cell-based; conditions: dose 0.3-3 µM, time 5.0 hrs
T1 sequence (whole entry): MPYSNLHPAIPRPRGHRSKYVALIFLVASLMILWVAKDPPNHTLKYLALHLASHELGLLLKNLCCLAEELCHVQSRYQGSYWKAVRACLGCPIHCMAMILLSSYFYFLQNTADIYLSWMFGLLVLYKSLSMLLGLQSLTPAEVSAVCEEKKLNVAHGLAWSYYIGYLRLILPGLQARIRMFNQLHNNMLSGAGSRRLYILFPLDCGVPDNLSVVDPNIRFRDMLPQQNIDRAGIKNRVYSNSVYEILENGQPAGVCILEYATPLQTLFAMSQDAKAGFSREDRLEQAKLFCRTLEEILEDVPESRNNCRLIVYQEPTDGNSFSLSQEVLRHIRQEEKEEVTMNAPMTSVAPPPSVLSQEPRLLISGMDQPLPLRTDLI

Mus musculus [6] = experiment: Anti-inflammatory activity against Cisplatin induced C57BL/6 mouse kidney inflammation model assessed as suppression of Cisplatin induced Ifn-beta mRNA level in kidney at 5 mg/kg, ip treated for 3 days by real-time PCR analysis; format: functional, organism-based; conditions: time 3.0 day
Mus musculus [7] = experiment: Anti-inflammatory activity in TREX1 D18N mouse model assessed as reduction in Isg15 mRNA expression in heart at 10 mg/kg, ip measured after 2 weeks; format: functional, organism-based
[8] = biological target: Stimulator of interferon genes protein (Homo sapiens) (UniProt Q86WV6); experiment: Inhibition of human wild type STING (R232) expressed in human 293-Dual hSTING-R232 cells assessed as reduction in cGAMP-induced TNF-alpha expression; format: cell-based
[9] = Metabolic stability in mouse liver microsomes assessed as liver intrinsic clearance; format: ADME, Microsome
[10] = biological target: Stimulator of interferon genes protein (Homo sapiens) (UniProt Q86WV6); experiment: Inhibition of STING downstream signalling in human THP1-Dual cells assessed as inhibition of cGAMP induced IP-10 secretion at 0.3 to 3 uM pre-treated for 1 hr followed by stimulated with cGAMP measured after 24 hrs by ELISA; format: cell-based; conditions: dose 0.3-3 µM, time 25.0 hrs
[11] = biological target: Stimulator of interferon genes protein (Homo sapiens) (UniProt Q86WV6); experiment: Inhibition of STING downstream signalling in human THP1-Dual cells assessed as inhibition of MSA-2 induced IP-10 mRNA expression at 0.3 to 3 uM pre-treated for 1 hr followed by stimulated with MSA-2 measured after 4 hrs by real-time PCR analysis; format: cell-based; conditions: dose 0.3-3 µM, time 5.0 hrs
Mus musculus [12] = experiment: Effect on […] expression in Cisplatin induced C57BL/6 STING-KO mouse kidney inflammation model at 5 mg/kg, ip treated for 3 days by real-time PCR analysis; format: functional, organism-based; conditions: time 3.0 day
[13] = Half life in Sprague-Dawley rat at 3 mg/kg, po; format: ADME, organism-based; conditions: in vivo
[14] = biological target: Stimulator of interferon genes protein (Homo sapiens) (UniProt Q86WV6); experiment: Inhibition of STING downstream signalling in human THP1-Dual cells assessed as inhibition of HT-DNA induced ISG56 mRNA expression at 0.3 to 3 uM pre-treated for 1 hr followed by stimulated with HT-DNA measured after 4 hrs by real-time PCR analysis; format: cell-based; conditions: dose 0.3-3 µM, time 5.0 hrs
[15] = test system: Stimulator of interferon genes protein (Homo sapiens), Q86WV6 [UNDEFINED MUTATION]; experiment: Inhibition of human STING expressed in 293T-Dual-hSTING-H232 cells assessed as reduction in cGAMP-induced secreted luciferase reporter of interferon stimulated gene (ISG) measured after 24 hrs incubation; format: cell-based
Sequence of Stimulator of interferon genes protein (Homo sapiens), Q86WV6 [UNDEFINED MUTATION] (Q86WV6 whole entry, looked up, stated change not applied): as the sequence (Q86WV6 whole entry) above

Mus musculus [16] = experiment: Anti-inflammatory activity in TREX1 D18N mouse model assessed as reduction in IL6 mRNA expression in kidney at 10 mg/kg, ip measured after 2 weeks; format: functional, organism-based
[17] = biological target: Stimulator of interferon genes protein (Homo sapiens) (UniProt Q86WV6); experiment: Inhibition of STING in human THP1-Dual cells assessed as inhibition of MSA-2 induced ISG signalling measured after 1 hr incubation followed by stimulated with MSA-2 by Western blotting analysis; format: cell-based
Mus musculus [18] = experiment: Anti-inflammatory activity in TREX1 D18N mouse model assessed as reduction in Isg15 mRNA expression in kidney at 10 mg/kg, ip measured after 2 weeks; format: functional, organism-based
[19] = biological target: T1, Stimulator of interferon genes protein (Mus musculus); experiment: Inhibition of STING downstream signalling in mouse BMDM cells assessed as inhibition of MSA-2 induced IRF3 phosphorylation pre-treated for 1 hr followed by stimulated with MSA-2 measured after 4 hrs by Western blot analysis; format: cell-based; conditions: dose 0.3-3 µM, time 5.0 hrs
[20] = Metabolic stability in rat liver microsomes assessed as liver intrinsic clearance; format: ADME, Microsome
Mus musculus [21] = experiment: Anti-inflammatory activity against MSA-2 induced C57BL/6 mouse inflammation model assessed as inhibition of MSA-2 induced Cxcl-10 mRNA expression in kidney at 10 mg/kg, ip pre-treated for 1 hr followed by stimulated with MSA-2 for 4 hrs by real-time PCR analysis; format: functional, organism-based; conditions: time 5.0 hrs
[22] = biological target: T1, Stimulator of interferon genes protein (Mus musculus); experiment: Inhibition of STING downstream signalling in mouse RAW264.7 cells assessed as inhibition of DMAAA induced Isg15 mRNA level pre-treated for 1 hr followed by stimulated with DMAAA measured after 4 hrs by real-time PCR analysis; format: cell-based; conditions: dose 0.3-3 µM, time 5.0 hrs
[23] = AUC (0 to infinity) in Sprague-Dawley rat at 1 mg/kg, iv; format: ADME, organism-based; conditions: in vivo
Mus musculus [24] = experiment: Anti-inflammatory activity against Cisplatin induced C57BL/6 STING-KO mouse kidney inflammation model assessed as prevention of Cisplatin induced glomerular injury at 5 mg/kg, ip treated for 3 days; format: functional, organism-based; conditions: time 3.0 day
[25] = biological target: Stimulator of interferon genes protein (Homo sapiens) (UniProt Q86WV6); experiment: Inhibition of human wild type STING (R232) expressed in human 293-Dual hSTING-R232 cells assessed as inhibition of secreted luciferase reporter of interferon stimulated gene (ISG) measured after 24 hrs incubation; format: cell-based
Mus musculus [26] = experiment: Anti-inflammatory activity in TREX1 D18N mouse model assessed as reduction in Cxcl10 mRNA expression in kidney at 10 mg/kg, ip measured after 2 weeks; format: functional, organism-based
[27] = biological target: T1, Stimulator of interferon genes protein (Mus musculus); experiment: Inhibition of STING downstream signalling in mouse RAW264.7 cells assessed as inhibition of […] induced Cxcl-10 mRNA level pre-treated for 1 hr followed by stimulated with […] measured after 4 hrs by real-time PCR analysis; format: cell-based; conditions: dose 0.3-3 µM, time 5.0 hrs

inhibition [1]: Active
inhibition [3]: Active
inhibition [4]: Active
inhibition [5]: Dose-dependent-effect
inhibition [8]: Active
CLH [9]: 206 µL/min/mg
inhibition [10]: Active
inhibition [11]: Active
half-life [13]: 196 min
inhibition [14]: Active
inhibition [15]: Active
inhibition [17]: Dose-dependent-effect
inhibition [19]: Dose-dependent-effect
CLH [20]: 64.8 µL/min/mg
inhibition [22]: Dose-dependent-effect
AUC(0-inf) [23]: 196 ng·h/mL
inhibition [25]: Active
inhibition [27]: Dose-dependent-effect
Structure (SMILES): N#CC/C=C/c1ccc2[nH]cc(NC(=O)Nc3ccc4c(c3)OC(F)(F)O4)c2c1
inhibition (Mus musculus [2]): Active
inhibition (Mus musculus [6]): Active
Activity (Mus musculus [7]): Active
Activity (Mus musculus [12]): inactive
Activity (Mus musculus [16]): Active
Activity (Mus musculus [18]): Active
inhibition (Mus musculus [21]): Active
Activity (Mus musculus [24]): inactive
Activity (Mus musculus [26]): Active
